Data taken from patent US11208446B2, “Agents and methods for treating CBP-dependent cancers” (priority 2016, dated 2021).

Columns and labels:
[1] = tested on: primary patient-derived MLL-rearranged leukemia cells; test: Primary patient derived xenograft, survival analysis; type: in vivo, NSG mice; settings: 50 mg/kg daily intraperitoneal, days 3-17, log-rank p=0.0038
Experimental: Mouse studies. All mouse experiments were carried out in accordance with institutional animal protocols. Two hundred thousand primary AML MLL-rearranged leukemia cells were suspended in […] of PBS and transplanted via tail vein injection into 8-week-old sublethally irradiation (200 rad) female NOD.Cg-Prkdc(scid)Il2rg(tm1Wjl)/SzJ mice (The Jackson Laboratory, Bar Harbor, Me., USA). Recipient mice were maintained on antibiotic supplementation in chow (0.025% trimethoprim, 0.124% sulfamethoxazole, Sulfatrim). Three days after transplant, mice were randomly assigned to experimental treatment groups. MYBMIM peptide suspended in PBS was administered daily through intraperitoneal injection at a daily dose of 50 mg/kg. Mice were treated from days 3-17 of this study for a total of 14 days and then monitored daily with clinical examination for survival analysis.
Statistical Analysis. For comparisons between two sample sets, statistical analysis of means was performed using 2-tailed, unpaired Student's t-tests. Survival analysis was done using the Kaplan-Meier method, as assessed using a log-rank test. For gene expression analysis, statistical significance was assessed using paired t-tests.

[2] = tested on: H3K27Ac-driven oncogenic enhancers; test: ChIP-seq of H3K27Ac enhancers in AML cells; type: cell-based, human
Experimental: Chromatin immunoprecipitation and sequencing (ChIP-seq). Briefly, cells were fixed in 1% formalin in phosphate-buffered saline (PBS) for 10 minutes at room temperature. Glycine (125 mM final concentration) and Tris-HCl pH 8 (100 mM final concentration) was added to the cells and cells were washed twice in ice-cold PBS and resuspended in sodium dodecyl sulfate (SDS) lysis buffer (1% SDS, 10 mM EDTA, 50 mM Tris-HCl, pH 8.1). Lysates were sonicated using the Covaris […] adaptive focused sonicator to obtain 100-500 bp chromatin fragments (Covaris, Woburn, Calif.). Lysates containing sheared chromatin fragments were resuspended in 0.01% SDS, 1.1% Triton-X100, 1.2 mM EDTA, 16.7 mM Tris-HCl, pH 8.1, 167 mM NaCl. Lysates and antibody-coupled beads were incubated over night at 4° C. Precipitates were washed sequentially with Mixed Micelle Wash Buffer (15 ml 5M NaCl-150 mM Final, 10 ml 1M Tris-Cl pH 8.1, 5 ml 0.5M EDTA, pH 8.0, 40 ml 65% w/v sucrose, 1 ml 10% NaN3, 25 ml 20% Triton X-100, 10 ml 10% SDS, Add dH2O to 500 ml), LiCl washing solution (0.5% deoxycholic acid, 1 mM EDTA, 250 mM LiCl, 0.5% NP-40, 10 mM Tris-Cl pH 8.0, 0.2% NaN3) and then TBS buffer (20 mM Tris-Cl pH 7.4, 150 mM NaCl). Elution performed in elution buffer (1% SDS, 0.1 M NaHCO3). […] Libraries were sequenced on the Illumina HiSeq 2500 instruments, with 30 million 2×50 bp paired reads.

[3] = tested on: MYB-dependent gene expression; test: RNA-seq gene expression after peptide treatment; type: cell-based, human
MOLM13 cells = test: Giemsa staining of cells for morphology; type: cell-based, human; settings: 20 μM, 6 hours
Experimental: Giemsa staining of cells for Morphology. MOLM13 cells were resupended to a concentration of 1×10^6 cells in 1 milliliter of PBS. Using the benchtop Cytospin Centrifuge instrument (ThermoFisher Scientific), 200 uL of the cell suspension was applied white clipped Cytofunnels (ThermoFisher Scientific) to glass microscope slides (2×10^5 cells/slide). Dip Quick Stain (J-322, Jorgensen Laboratories, Inc) was used for per manufacturer's protocol for the polychromic stain of cells.

MYB:CBP complex = target: T1, MYB:CBP complex (Homo sapiens, UniProt Q92793); test: Dissociation of MYB:CBP complex in AML cells (co-immunoprecipitation); type: cell-based
T1 construct: endogenous in cells; host or cells: MV411 human AML cells
Experimental: Co-immunoprecipitation analysis. 7.5 μg of indicated antibodies were conjugated to 1 mg M-270 Epoxy-coated magnetic beads (Invitrogen) according to manufacturer's instructions. 1×10^7 MV411 cells were collected and washed in cold PBS. Washed cell pellets were resuspended in 350 μL cold lysis buffer (50 mM Tris-HCl pH 7.4, 150 mM NaCl, 1 mM EDTA, 1 mM DTT, 0.5% Triton X-100, supplemented with protease inhibitors described above) and incubated on ice for 10 min. Cells were mechanically disrupted using the Covaris […] adaptive focused sonicator at 50 W peak power, 10% duty cycle, 200 cycles per burst at 4° C. for 300 sec. Lysate was clarified by centrifugation for 15 min at 18,000×g at 4° C. Supernatant (cleared lysate) was diluted in 1.05 mL dilution buffer (50 mM Tris-HCl, 150 mM NaCl, 1 mM EDTA, 1 mM DTT, 10% glycerol, supplemented with protease inhibitors described above for a total volume of 1.4 mL. Diluted lysate was added to 1 mg beads, and immunoprecipitation proceeded for 3 h at 4° C. with rotation. Beads were then washed with lysis buffer twice. Proteins were eluted in 20 μL EB buffer (Invitrogen) for 5 min at room temperature, and eluate was neutralized with 2 μL 1M Tris pH 11. Samples were prepared for Western blot by addition of Laemmli buffer with 50 mM DTT and incubation at 95° C. for 5 min. Presence of MYB and CBP was identified by Western blot as described above.

MV411 cells = test: CellTiter Glo viability of MV411 cells with ectopic BCL2 expression; type: cell-based, human; settings: MV411 cells with MSCV-Ires-GFP BCL2 vector

T1 sequence (Q92793 2-2442 limits assumed, one chain of several): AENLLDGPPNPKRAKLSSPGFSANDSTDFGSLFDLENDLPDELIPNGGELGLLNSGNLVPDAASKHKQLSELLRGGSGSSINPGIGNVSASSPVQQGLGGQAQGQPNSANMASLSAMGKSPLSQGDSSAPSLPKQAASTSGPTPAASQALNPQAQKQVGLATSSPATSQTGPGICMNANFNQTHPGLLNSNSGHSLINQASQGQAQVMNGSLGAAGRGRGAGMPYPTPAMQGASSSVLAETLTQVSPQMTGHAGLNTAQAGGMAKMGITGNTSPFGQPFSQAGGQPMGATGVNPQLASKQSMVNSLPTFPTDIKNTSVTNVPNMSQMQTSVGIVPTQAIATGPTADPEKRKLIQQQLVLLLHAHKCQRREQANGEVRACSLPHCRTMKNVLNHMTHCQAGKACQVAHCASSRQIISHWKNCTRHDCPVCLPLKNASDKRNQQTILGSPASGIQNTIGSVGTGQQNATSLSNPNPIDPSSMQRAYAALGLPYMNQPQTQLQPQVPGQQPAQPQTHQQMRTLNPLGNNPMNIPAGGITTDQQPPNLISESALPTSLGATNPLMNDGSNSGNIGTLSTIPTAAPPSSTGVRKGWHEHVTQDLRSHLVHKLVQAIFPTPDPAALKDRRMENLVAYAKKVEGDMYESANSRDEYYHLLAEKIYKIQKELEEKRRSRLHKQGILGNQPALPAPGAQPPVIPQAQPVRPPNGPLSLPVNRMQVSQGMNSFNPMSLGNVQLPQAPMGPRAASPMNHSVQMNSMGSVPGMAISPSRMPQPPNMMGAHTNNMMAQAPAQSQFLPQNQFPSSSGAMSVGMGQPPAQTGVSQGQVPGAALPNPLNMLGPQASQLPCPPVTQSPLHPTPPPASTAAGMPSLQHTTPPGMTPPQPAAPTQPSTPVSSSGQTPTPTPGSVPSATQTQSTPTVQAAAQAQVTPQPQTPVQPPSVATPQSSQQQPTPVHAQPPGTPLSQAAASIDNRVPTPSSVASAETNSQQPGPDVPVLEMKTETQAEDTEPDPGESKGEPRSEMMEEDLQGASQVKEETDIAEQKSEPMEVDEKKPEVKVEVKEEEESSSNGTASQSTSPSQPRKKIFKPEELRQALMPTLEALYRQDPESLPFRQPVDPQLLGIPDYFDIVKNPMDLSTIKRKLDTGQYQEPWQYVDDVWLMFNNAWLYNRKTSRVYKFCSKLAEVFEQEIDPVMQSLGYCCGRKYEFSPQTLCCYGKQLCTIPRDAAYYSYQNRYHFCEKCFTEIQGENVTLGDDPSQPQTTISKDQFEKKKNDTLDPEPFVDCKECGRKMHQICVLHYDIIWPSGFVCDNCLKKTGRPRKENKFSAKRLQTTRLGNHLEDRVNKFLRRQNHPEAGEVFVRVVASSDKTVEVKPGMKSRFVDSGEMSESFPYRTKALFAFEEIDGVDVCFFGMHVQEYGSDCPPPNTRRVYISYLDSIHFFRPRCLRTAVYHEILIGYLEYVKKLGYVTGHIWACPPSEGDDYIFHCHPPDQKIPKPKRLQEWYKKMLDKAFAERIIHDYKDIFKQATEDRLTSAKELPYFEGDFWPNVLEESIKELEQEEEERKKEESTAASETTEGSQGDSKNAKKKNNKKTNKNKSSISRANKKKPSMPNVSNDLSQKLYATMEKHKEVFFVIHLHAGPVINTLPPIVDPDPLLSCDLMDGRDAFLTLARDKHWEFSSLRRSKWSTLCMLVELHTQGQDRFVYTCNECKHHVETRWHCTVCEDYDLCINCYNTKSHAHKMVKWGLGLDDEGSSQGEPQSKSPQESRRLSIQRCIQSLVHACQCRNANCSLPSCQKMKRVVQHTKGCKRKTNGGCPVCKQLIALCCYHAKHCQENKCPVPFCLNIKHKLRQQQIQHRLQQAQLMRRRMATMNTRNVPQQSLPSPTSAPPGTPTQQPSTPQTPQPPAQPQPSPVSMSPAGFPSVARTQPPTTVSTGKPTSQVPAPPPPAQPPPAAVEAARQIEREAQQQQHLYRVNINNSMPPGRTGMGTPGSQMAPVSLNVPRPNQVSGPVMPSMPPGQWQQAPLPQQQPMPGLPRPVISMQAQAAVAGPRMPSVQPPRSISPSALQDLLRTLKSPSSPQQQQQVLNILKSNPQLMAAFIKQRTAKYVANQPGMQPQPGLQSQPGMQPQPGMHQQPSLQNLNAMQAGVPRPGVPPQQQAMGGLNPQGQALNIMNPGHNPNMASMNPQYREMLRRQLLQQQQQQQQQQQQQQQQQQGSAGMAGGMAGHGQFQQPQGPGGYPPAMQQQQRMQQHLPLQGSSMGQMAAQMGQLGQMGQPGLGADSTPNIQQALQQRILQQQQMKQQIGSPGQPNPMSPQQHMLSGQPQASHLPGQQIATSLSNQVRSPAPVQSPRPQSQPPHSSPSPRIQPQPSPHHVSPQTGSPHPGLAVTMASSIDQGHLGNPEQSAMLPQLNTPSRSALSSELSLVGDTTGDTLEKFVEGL

In the case of `CC[C@@H](C)[C@@H](NC(=O)[C@@H](CCCCN)NC(=O)[C@@H](CCC(=O)O)NC(=O)[C@@H](CC(C)C)NC(=O)[C@@H](CCC(=O)O)NC(=O)[C@@H](CC(C)C)NC(=O)[C@@H](CC(C)C)NC(=O)[C@@H](CC(C)C)NC(=O)[C@@H](CCSC)NC(=O)[C@@H](CO)NC(=O)[C@H](NC(=O)[C@@H](CCC(=O)O)NC(=O)[C@@H](CC(N)=O)NC(=O)[C@@H](CCC(=O)O)NC(=O)[C@@H](CC(C)C)NC(=O)[C@@H](CCCCN)NC(C)=O)[C@H](C)O)C(=O)N[C@H](CCCNC(=N)N)C(=O)N[C@H](CCCCN)C(=O)NCC(=O)NCC(=O)N[C@H](CCCNC(=N)N)C(=O)N[C@H](CCCNC(=N)N)C(=O)N[C@H](CCCNC(=N)N)C(=O)N[C@H](CCC(N)=O)C(=O)N[C@H](CCCNC(=N)N)C(=O)N[C@H](CCCNC(=N)N)C(=O)N[C@H](CCCCN)C(=O)N[C@H](CCCCN)C(=O)N[C@H](CCCNC(=N)N)C(=O)NCC(=O)N[C@H](Cc1ccc(O)cc1)C(N)=O` [MYBMIM], the “survival of mice (Kaplan-Meier)” value [1] was “prolongs survival”, the “survival of mice (Kaplan-Meier)” value ([1]; listed as SEQ ID NO:1) was “impeded leukemia progression and extended survival” and the H3K27Ac-driven oncogenic enhancers [2] was “obliteration”. For the same compound, the “MYC and BCL2 expression (volcano plot)” value ([3]; MV411 cells, MYBMIM vs control) was “significantly downregulated”, the “MYB-dependent gene expression (RNA-seq)” value ([3]; human AML cells, 6 hours, 20 μM, vs TG3 and control) was “significant down-regulation” and the cell morphology (MOLM13 cells) was “induces cell death without morphologic evidence of differentiation”. For the same compound, the “MYB:CBP complex in cells” value (MYB:CBP complex) was “displacement and dissociation of MYB:CBP complex” and the “rescue of peptide-induced apoptosis by ectopic Bcl2 expression (cell viability)” value (MV411 cells) was “partial rescue”.
